Like-named read-outs stand apart in the source and are kept apart here.
Columns and labels:
[1] = for flowability index: Carr method: compressibility, angle of repose, spatula angle, cohesion
Description: The flowability index is calculated by the Carr method (R. Carr: Chemical Engineering, Jan. 18, 1965, page 163-168) and takes into account the results of four experimental values: compressibility, angle of repose, spatula angle and cohesion.

[2] = for packing density: Hosokawa machine, 180 gravity drops
[3] = as indicated in EP 708 103; cited from earlier work
[4] = brick habit versus acicular habit

| Structure (SMILES) | flowability index ([1]; listed as crystals of brick habit) | increase in the flowability index with respect to the acicular habit [1, 4] [%] | packing density ([2]; listed as irbesartan crystals having the new crystal habit) | increase in the packing density with respect to the acicular habit [2, 4] [%] | flowability index ([1]; listed as crystals of acicular habit) | packing density ([2]; listed as crystals of the acicular form A) | stability and hygroscopicity of the crystals [3] |
| --- | --- | --- | --- | --- | --- | --- | --- |
| CCCCC1=NC2(CCCC2)C(=O)N1Cc1ccc(-c2ccccc2-c2nnn[nH]2)cc1 [irbesartan crystals in the brick habit, 2-n-butyl-4-spirocyclopentane-1-[(2′-(tetrazol-5-yl)biphenyl-4-yl)methyl]-2-imidazolin-5-one] | about 30 | 50 | about 0.5 kg m^3 | 50 |  |  |  |
| CCCCC1=NC2(CCCC2)C(=O)N1Cc1ccc(-c2ccccc2-c2nnn[nH]2)cc1 [crystals of irbesartan in acicular form A] [2-n-butyl-4-spirocyclopentane-1-[(2′-(tetrazol-5-yl)biphenyl-4-yl)methyl]-2-imidazolin-5-one, reference compound] |  |  |  |  | about 10 | about 0.35 kg/M^3 | stable, non-hygroscopic |
